Experimental data as given in patent US8003082B2, “Photostable organic sunscreen composition” (Merck Patent GmbH, priority 2003, dated 2011).
Values belong to the molecule of their own block, whether it stands above or below them.

Tests used:
[1] = Photostabilization of Avobenzone in formulation, thin films between glass slides under UV-B light, loss in absorption; format: physicochemical
Procedure: Photostabilization of Avobenzone (in formulation) was performed using thin films (about 50-100μ thick, transmission signals in the non-absorbing regions must be above 85%) of formulated materials placed between two glass slides and then irradiated under UV-B light (Q-U-V Accelerated Weather Tester, The Q Panel Company). Photodegradation of Avobenzone was calculated from the relative loss in absorption of Avobenzone in formulated products before and after irradiation. 1 hour irradiation under UV-B light is equal to about 1.4 MED (minimal erythemal dose). A Beckman Coulter DU-640 spectrophotometer at a scan speed of 120 nm/min was used for this study. All spectra were recorded from 200 to 600 nm.

[2] = In vitro critical wavelength and SPF; details: Avobenzone (2%) in the presence of HMS (6%) and Oxynex ST (2%)
Procedure: The target SPF range can be achieved with a combination of both inorganic and organic chromophoric compounds. SPF is determined by techniques well known in the art, on human skin as described in the Federal Register, Aug. 25, 1978, Vol. 43, No. 166, pages 38259-38269 (Sunscreen Drug Products for Over-The-Counter Human Use, Food and Drug Administration). SPF values can also be approximated using in-vitro models as described, for example, in J. Soc. Cosmet. Chem. 44:127-133 (May/June 1989).

[3] = Solubility of Avobenzone in Oxynex ST + OMC on storage; format: physicochemical; parameters: key: Ppt = precipitate
[4] = Solubility of Avobenzone in Oxynex ST + HMS on storage; format: physicochemical; parameters: key: Ppt = precipitate
Procedure: The solubility of Avobenzone was tested in various ratios of Oxynex® ST and HMS.

[5] = Diphenylpicryl Hydrazide (DPPH) antioxidant test; format: biochemical; details: DPPH test method
Procedure: Di-2-ethylhexyl-3,5-dimethoxy-4-hydroxy-benzalmalonate is a yellow viscous liquid having a λmax at 332 nm (MeOH, εmax 18,600 cm^−1 mol^−1) or 337 nm (EtOH:H2O/70:30, εmax 19,840 cm^−1 mol^−1).
A DPPH concentrate (2.5×) of 25 mg of 1,1-Diphenyl-2-Picyrl-Hydrazyl ACS#1898-66-4 (Sigma #D-9132, lot 99H3601) dissolved in 250 mL ethanol (USP), is prepared fresh on the measurement date. A DPPH working solution is then prepared by diluting 100 mL of this concentrate to a final volume of 250 mL (100 μM/mL). A blank 13×100 mm borosilicate glass screw top tube of ethanol (USP) is used to zero the spectrometer (Milton Roy, Spectronic 20+) at 517 nm and a control tube of DPPH working solution is measured under identical conditions, and taken as 0% activity. […] After 20 minutes, the absorbance of each sample is read at 517 nm.
The percent reducing activity (% RA) is calculated using the following equation: […]
Where A(0) is the absorbance value of the DPPH working solution at 517 nm zeroed against an ethanol blank and A(20) is the absorbance at 517 nm, 20 minutes after combining the antioxidant with the DPPH working solution.
The concentration of antioxidant (mg/ml) in the final assay mixture is calculated based on the dilution of respective aliquots of each compound in the final assay volume and % RA tabulated and plotted as percent activity at each concentration in the dilution series: […]

Avobenzone stability [1]: 24%
Solubility of Avobenzone in the Oxynex ® ST Photostabilizer + OMC ([3]; Avobenzone/Oxynex ST/OMC 20/20/60, storage 4° C., 1 week): Clear
Solubility of Avobenzone in the Oxynex ® ST Photostabilizer + OMC ([3]; Avobenzone/Oxynex ST/OMC 20/20/60, storage 4° C., 2 weeks): Crystal?
Solubility of Avobenzone in the Oxynex ® ST Photostabilizer + OMC ([3]; Avobenzone/Oxynex ST/OMC 20/20/60, storage 4° C., 48 hr): Clear
Solubility of Avobenzone in the Oxynex ® ST Photostabilizer + OMC ([3]; Avobenzone/Oxynex ST/OMC 20/20/60, storage RT, 1 week): Clear
Solubility of Avobenzone in the Oxynex ® ST Photostabilizer + OMC ([3]; Avobenzone/Oxynex ST/OMC 20/20/60, storage RT, 2 weeks): Clear
Solubility of Avobenzone in the Oxynex ® ST Photostabilizer + OMC ([3]; Avobenzone/Oxynex ST/OMC 20/20/60, storage RT, 48 hr): Clear
Solubility of Avobenzone in the Oxynex ® ST Photostabilizer + OMC ([3]; Avobenzone/Oxynex ST/OMC 25/25/50, storage 4° C., 1 week): Ppt
Solubility of Avobenzone in the Oxynex ® ST Photostabilizer + OMC ([3]; Avobenzone/Oxynex ST/OMC 25/25/50, storage 4° C., 2 weeks): Ppt
Solubility of Avobenzone in the Oxynex ® ST Photostabilizer + OMC ([3]; Avobenzone/Oxynex ST/OMC 25/25/50, storage 4° C., 48 hr): Clear
Solubility of Avobenzone in the Oxynex ® ST Photostabilizer + OMC ([3]; Avobenzone/Oxynex ST/OMC 25/25/50, storage RT, 1 week): Clear
Solubility of Avobenzone in the Oxynex ® ST Photostabilizer + OMC ([3]; Avobenzone/Oxynex ST/OMC 25/25/50, storage RT, 2 weeks): Crystal?
Solubility of Avobenzone in the Oxynex ® ST Photostabilizer + OMC ([3]; Avobenzone/Oxynex ST/OMC 25/25/50, storage RT, 48 hr): Clear
Solubility of Avobenzone in the Oxynex ® ST Photostabilizer + OMC ([3]; Avobenzone/Oxynex ST/OMC 30/20/50, storage 4° C., 48 hr): Few
Solubility of Avobenzone in the Oxynex ® ST Photostabilizer + OMC ([3]; Avobenzone/Oxynex ST/OMC 30/20/50, storage RT, 48 hr): Few
Solubility of Avobenzone in the Oxynex ® ST Photostabilizer + HMS ([4]; Avobenzone/Oxynex ST/HMS 15/15/70, storage 4° C., 1 week): Clear
Solubility of Avobenzone in the Oxynex ® ST Photostabilizer + HMS ([4]; Avobenzone/Oxynex ST/HMS 15/15/70, storage 4° C., 2 weeks): Crystal?
Solubility of Avobenzone in the Oxynex ® ST Photostabilizer + HMS ([4]; Avobenzone/Oxynex ST/HMS 15/15/70, storage 4° C., 3 weeks): Crystal?
Solubility of Avobenzone in the Oxynex ® ST Photostabilizer + HMS ([4]; Avobenzone/Oxynex ST/HMS 15/15/70, storage 4° C., 6 weeks): Ppt
Solubility of Avobenzone in the Oxynex ® ST Photostabilizer + HMS ([4]; Avobenzone/Oxynex ST/HMS 15/15/70, storage 4° C., 24 hr): Clear
Solubility of Avobenzone in the Oxynex ® ST Photostabilizer + HMS ([4]; Avobenzone/Oxynex ST/HMS 15/15/70, storage RT, 1 week): Clear
Solubility of Avobenzone in the Oxynex ® ST Photostabilizer + HMS ([4]; Avobenzone/Oxynex ST/HMS 15/15/70, storage RT, 2 weeks): Clear
Solubility of Avobenzone in the Oxynex ® ST Photostabilizer + HMS ([4]; Avobenzone/Oxynex ST/HMS 15/15/70, storage RT, 3 weeks): Clear
Solubility of Avobenzone in the Oxynex ® ST Photostabilizer + HMS ([4]; Avobenzone/Oxynex ST/HMS 15/15/70, storage RT, 6 weeks): Clear
Solubility of Avobenzone in the Oxynex ® ST Photostabilizer + HMS ([4]; Avobenzone/Oxynex ST/HMS 15/15/70, storage RT, 24 hr): Clear
Solubility of Avobenzone in the Oxynex ® ST Photostabilizer + HMS ([4]; Avobenzone/Oxynex ST/HMS 20/20/60, storage 4° C., 1 week): Clear
Solubility of Avobenzone in the Oxynex ® ST Photostabilizer + HMS ([4]; Avobenzone/Oxynex ST/HMS 20/20/60, storage 4° C., 2 weeks): Crystal?
Solubility of Avobenzone in the Oxynex ® ST Photostabilizer + HMS ([4]; Avobenzone/Oxynex ST/HMS 20/20/60, storage 4° C., 3 weeks): Crystal?
Solubility of Avobenzone in the Oxynex ® ST Photostabilizer + HMS ([4]; Avobenzone/Oxynex ST/HMS 20/20/60, storage 4° C., 6 weeks): Ppt
Solubility of Avobenzone in the Oxynex ® ST Photostabilizer + HMS ([4]; Avobenzone/Oxynex ST/HMS 20/20/60, storage 4° C., 24 hr): Clear
Solubility of Avobenzone in the Oxynex ® ST Photostabilizer + HMS ([4]; Avobenzone/Oxynex ST/HMS 20/20/60, storage RT, 1 week): Clear
Solubility of Avobenzone in the Oxynex ® ST Photostabilizer + HMS ([4]; Avobenzone/Oxynex ST/HMS 20/20/60, storage RT, 2 weeks): Clear
Solubility of Avobenzone in the Oxynex ® ST Photostabilizer + HMS ([4]; Avobenzone/Oxynex ST/HMS 20/20/60, storage RT, 3 weeks): Clear
Solubility of Avobenzone in the Oxynex ® ST Photostabilizer + HMS ([4]; Avobenzone/Oxynex ST/HMS 20/20/60, storage RT, 6 weeks): Clear
Solubility of Avobenzone in the Oxynex ® ST Photostabilizer + HMS ([4]; Avobenzone/Oxynex ST/HMS 20/20/60, storage RT, 24 hr): Clear
Solubility of Avobenzone in the Oxynex ® ST Photostabilizer + HMS ([4]; Avobenzone/Oxynex ST/HMS 25/25/50, storage 4° C., 1 week): Ppt
Solubility of Avobenzone in the Oxynex ® ST Photostabilizer + HMS ([4]; Avobenzone/Oxynex ST/HMS 25/25/50, storage 4° C., 2 weeks): Ppt
Solubility of Avobenzone in the Oxynex ® ST Photostabilizer + HMS ([4]; Avobenzone/Oxynex ST/HMS 25/25/50, storage 4° C., 3 weeks): Ppt
Solubility of Avobenzone in the Oxynex ® ST Photostabilizer + HMS ([4]; Avobenzone/Oxynex ST/HMS 25/25/50, storage 4° C., 6 weeks): Ppt
Solubility of Avobenzone in the Oxynex ® ST Photostabilizer + HMS ([4]; Avobenzone/Oxynex ST/HMS 25/25/50, storage 4° C., 24 hr): Clear
Solubility of Avobenzone in the Oxynex ® ST Photostabilizer + HMS ([4]; Avobenzone/Oxynex ST/HMS 25/25/50, storage RT, 1 week): Clear
Solubility of Avobenzone in the Oxynex ® ST Photostabilizer + HMS ([4]; Avobenzone/Oxynex ST/HMS 25/25/50, storage RT, 2 weeks): Crystal?
Solubility of Avobenzone in the Oxynex ® ST Photostabilizer + HMS ([4]; Avobenzone/Oxynex ST/HMS 25/25/50, storage RT, 3 weeks): Ppt
Solubility of Avobenzone in the Oxynex ® ST Photostabilizer + HMS ([4]; Avobenzone/Oxynex ST/HMS 25/25/50, storage RT, 6 weeks): Ppt
Solubility of Avobenzone in the Oxynex ® ST Photostabilizer + HMS ([4]; Avobenzone/Oxynex ST/HMS 25/25/50, storage RT, 24 hr): Clear
Solubility of Avobenzone in the Oxynex ® ST Photostabilizer + HMS ([4]; Avobenzone/Oxynex ST/HMS 30/30/40, storage 4° C., 1 week): Ppt
Solubility of Avobenzone in the Oxynex ® ST Photostabilizer + HMS ([4]; Avobenzone/Oxynex ST/HMS 30/30/40, storage 4° C., 2 weeks): Ppt
Solubility of Avobenzone in the Oxynex ® ST Photostabilizer + HMS ([4]; Avobenzone/Oxynex ST/HMS 30/30/40, storage 4° C., 3 weeks): Ppt
Solubility of Avobenzone in the Oxynex ® ST Photostabilizer + HMS ([4]; Avobenzone/Oxynex ST/HMS 30/30/40, storage 4° C., 6 weeks): Ppt
Solubility of Avobenzone in the Oxynex ® ST Photostabilizer + HMS ([4]; Avobenzone/Oxynex ST/HMS 30/30/40, storage 4° C., 24 hr): Clear
Solubility of Avobenzone in the Oxynex ® ST Photostabilizer + HMS ([4]; Avobenzone/Oxynex ST/HMS 30/30/40, storage RT, 1 week): Ppt
Solubility of Avobenzone in the Oxynex ® ST Photostabilizer + HMS ([4]; Avobenzone/Oxynex ST/HMS 30/30/40, storage RT, 2 weeks): Ppt
Solubility of Avobenzone in the Oxynex ® ST Photostabilizer + HMS ([4]; Avobenzone/Oxynex ST/HMS 30/30/40, storage RT, 3 weeks): Ppt
Solubility of Avobenzone in the Oxynex ® ST Photostabilizer + HMS ([4]; Avobenzone/Oxynex ST/HMS 30/30/40, storage RT, 6 weeks): Ppt
Solubility of Avobenzone in the Oxynex ® ST Photostabilizer + HMS ([4]; Avobenzone/Oxynex ST/HMS 30/30/40, storage RT, 24 hr): Clear
Structure (SMILES): COc1ccc(C(=O)CC(=O)c2ccc(C(C)(C)C)cc2)cc1 [Avobenzone, 4-(tert-butyl)-4′-methoxydibenzoylmethane]
SPF [2]: > 30
critical wavelength [2]: appropriate

antioxidant activity (IC50) [5]: 85 ± 8 µg/mL
Structure (SMILES): CCCCC(CC)COC(=O)C(=Cc1cc(OC)c(O)c(OC)c1)C(=O)OCC(CC)CCCC (stereo not drawn) [Oxynex ST, Di-(2-Ethylhexyl)-3,5-dimethoxy-4-hydroxy benzylidene malonate]

stabilization of Avobenzone ([1]; combined with Homosalate, ratio (w/w) 2:6:2): failed to stabilize
effect on the photostabilization of Avobenzone ([1]; photostabilizer used alone): practically no effect
Structure (SMILES): CCCCC(CC)COC(=O)c1ccc2cc(C(=O)OCC(CC)CCCC)ccc2c1 (stereo not drawn) [TQ, Di-2-ethylhexyl-napthylate]
